Experiments:
Assay in all cases: combination Emax (second highest fraction inhibited in the dose matrix, 72 h); higher = more inhibition; extreme values may be limits of the assay
[1] = system: CL-11 (Colorectal Carcinoma)
Summary of the method: (§1)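 After 24 hours at 37°C and 5% CO2 in 1536-well plates, cells in DMEM/F12 or RPMI plus 10% FBS received two-drug dose matrices for 72 hours. Viability came from CellTiter-Glo 2.0 luminescence and was scaled as inhibition, anchored at 0 by vehicle wells and at 1 by blank wells. Combination Emax is taken as the second-highest inhibition in the matrix, and Bliss excess as the observed combination effect less EA + EB − EA·EB, with EA and EB the single-agent effects.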

NCI-H226 (Mesothelioma) = system: NCI-H226 (Mesothelioma)
Summary of the method: as §1

[2] = system: NCI-H1341 (Small Cell Lung Carcinoma)
Summary of the method: as §1

[3] = system: MOLT-13 (T-Lymphoblastic Leukemia)
Summary of the method: as §1

[4] = system: NCI-H3118 (Head and Neck Carcinoma)
Summary of the method: as §1

KALS-1 (Glioblastoma) = system: KALS-1 (Glioblastoma)
Summary of the method: as §1

IST-MEL1 (Melanoma) = system: IST-MEL1 (Melanoma)
Summary of the method: as §1

[5] = system: SiHa (Cervical Carcinoma)
Summary of the method: as §1

[6] = system: SKG-IIIa (Cervical Carcinoma)
Summary of the method: as §1

[7] = system: PL4 (Pancreatic Carcinoma)
Summary of the method: as §1

[8] = system: SK-CO-1 (Colorectal Carcinoma)
Summary of the method: as §1

[9] = system: KP-4 (Pancreatic Carcinoma)
Summary of the method: as §1

[10] = system: SAT (Head and Neck Carcinoma)
Summary of the method: as §1

GAK (Melanoma) = system: GAK (Melanoma)
Summary of the method: as §1

[11] = system: C-33-A (Cervical Carcinoma)
Summary of the method: as §1

[12] = system: MS-1 (Small Cell Lung Carcinoma)
Summary of the method: as §1

[13] = system: MOLP-8 (Plasma Cell Myeloma)
Summary of the method: as §1

[14] = system: HT-1080 (Other Solid Carcinomas)
Summary of the method: as §1

[15] = system: COR-L88 (Small Cell Lung Carcinoma)
Summary of the method: as §1

SMILES: NC1(C(=O)N[C@@H](CCO)c2ccc(Cl)cc2)CCN(c2ncnc3[nH]ccc23)CC1 [Capivasertib] + CCN(CCO)CCCOc1ccc2c(Nc3cc(CC(=O)Nc4cccc(F)c4)[nH]n3)ncnc2c1 [AZD2811] (first compound max 10 µM, 7x7, partner max 1 µM)
- combination Emax [1]: 0.272
- combination Emax (NCI-H226 (Mesothelioma)): 0.311
- combination Emax [2]: 0.655
- combination Emax [3]: 0.992
- combination Emax [4]: 0.241
- combination Emax (KALS-1 (Glioblastoma)): 0.495
- combination Emax (IST-MEL1 (Melanoma)): 0.459
- combination Emax [5]: 0.299
- combination Emax [6]: 0.374
- combination Emax [7]: 0.393
- combination Emax [8]: 0.64
- combination Emax [9]: 0.682
- combination Emax [10]: 0.502
- combination Emax (GAK (Melanoma)): 0.219
- combination Emax [11]: 0.712
- combination Emax [12]: 0.386
- combination Emax [13]: 0.583
- combination Emax [14]: 0.256
- combination Emax [15]: 0.253

SMILES: NC1(C(=O)N[C@@H](CCO)c2ccc(Cl)cc2)CCN(c2ncnc3[nH]ccc23)CC1 [Capivasertib] + COc1nnc2ccc(N3CCC(c4ccc(OCCN5CCN(C)C(=O)[C@H]5C)cc4)CC3)nn12 [AZD5153] (first compound max 10 µM, 7x7, partner max 1 µM)
- combination Emax [1]: 0.688
- combination Emax (NCI-H226 (Mesothelioma)): 0.402
- combination Emax [2]: 0.851
- combination Emax [3]: 0.873
- combination Emax [4]: 0.537
- combination Emax (KALS-1 (Glioblastoma)): 0.682
- combination Emax (IST-MEL1 (Melanoma)): 0.451
- combination Emax [5]: 0.644
- combination Emax [6]: 0.43
- combination Emax [7]: 0.613
- combination Emax [8]: 0.438
- combination Emax [9]: 0.58
- combination Emax [10]: 0.811
- combination Emax (GAK (Melanoma)): 0.376
- combination Emax [11]: 0.779
- combination Emax [12]: 0.931
- combination Emax [13]: 1
- combination Emax [14]: 0.388
- combination Emax [15]: 0.496

SMILES: NC1(C(=O)N[C@@H](CCO)c2ccc(Cl)cc2)CCN(c2ncnc3[nH]ccc23)CC1 [Capivasertib] + C[C@@H]1COCCN1C2=NC(=NC(=C2)C3(CC3)[S@](=N)(=O)C)C4=C5C=CNC5=NC=C4 [AZD6738] (first compound max 10 µM, 7x7, partner max 10 µM)
- combination Emax [1]: 0.718
- combination Emax (NCI-H226 (Mesothelioma)): 0.358
- combination Emax [2]: 0.928
- combination Emax [3]: 0.957
- combination Emax [4]: 0.603
- combination Emax (KALS-1 (Glioblastoma)): 0.784
- combination Emax (IST-MEL1 (Melanoma)): 0.785
- combination Emax [5]: 0.413
- combination Emax [6]: 0.5
- combination Emax [7]: 0.777
- combination Emax [8]: 0.668
- combination Emax [9]: 0.597
- combination Emax [10]: 0.579
- combination Emax (GAK (Melanoma)): 0.509
- combination Emax [11]: 0.946
- combination Emax [12]: 0.747
- combination Emax [13]: 0.85
- combination Emax [14]: 0.435
- combination Emax [15]: 0.435

SMILES: NC1(C(=O)N[C@@H](CCO)c2ccc(Cl)cc2)CCN(c2ncnc3[nH]ccc23)CC1 [Capivasertib] + Cn1cnc2c(F)c(Nc3ccc(Br)cc3Cl)c(C(=O)NOCCO)cc21 [Selumetinib] (first compound max 10 µM, 7x7, partner max 10 µM)
- combination Emax [1]: 0.8
- combination Emax (NCI-H226 (Mesothelioma)): 0.316
- combination Emax [2]: 0.728
- combination Emax [3]: 0.555
- combination Emax [4]: 0.657
- combination Emax (KALS-1 (Glioblastoma)): 0.61
- combination Emax (IST-MEL1 (Melanoma)): 0.584
- combination Emax [5]: 0.233
- combination Emax [6]: 0.435
- combination Emax [7]: 0.726
- combination Emax [8]: 0.886
- combination Emax [9]: 0.483
- combination Emax [10]: 0.677
- combination Emax (GAK (Melanoma)): 0.757
- combination Emax [11]: 0.803
- combination Emax [12]: 0.267
- combination Emax [13]: 0.715
- combination Emax [14]: 0.466
- combination Emax [15]: 0.257

SMILES: Cc1nc(Nc2ncc(C(=O)Nc3c(C)cccc3Cl)s2)cc(N2CCN(CCO)CC2)n1 [Dasatinib] + CC(=O)Nc1cccc(-n2c(=O)n(C3CC3)c(=O)c3c(Nc4ccc(I)cc4F)n(C)c(=O)c(C)c32)c1 [Trametinib] (first compound max 2 µM, 7x7, partner max 1 µM)
- combination Emax [1]: 0.961
- combination Emax (NCI-H226 (Mesothelioma)): 0.458
- combination Emax [2]: 0.425
- combination Emax [3]: 0.559
- combination Emax [4]: 0.811
- combination Emax (KALS-1 (Glioblastoma)): 0.917
- combination Emax (IST-MEL1 (Melanoma)): 0.793
- combination Emax [5]: 0.329
- combination Emax [6]: 0.5
- combination Emax [7]: 0.955
- combination Emax [8]: 0.994
- combination Emax [9]: 0.735
- combination Emax [10]: 0.826
- combination Emax (GAK (Melanoma)): 0.788
- combination Emax [11]: 0.642
- combination Emax [12]: 0.125
- combination Emax [13]: 0.621
- combination Emax [14]: 0.61
- combination Emax [15]: 0.2

SMILES: COc1cc2ncnc(Nc3ccc(F)c(Cl)c3)c2cc1OCCCN1CCOCC1 [Gefitinib] + CC(C)n1c(=O)n(C)c2cnc3cc(F)c(-c4ccc(OCCCN5CCCCC5)nc4)cc3c21 [AZD1390] (first compound max 10 µM, 7x7, partner max 0.3 µM)
- combination Emax [1]: 0.0239
- combination Emax (NCI-H226 (Mesothelioma)): 0.0952
- combination Emax [2]: 0.108
- combination Emax [3]: 0.311
- combination Emax [4]: 0.518
- combination Emax (KALS-1 (Glioblastoma)): 0.127
- combination Emax (IST-MEL1 (Melanoma)): 0.0683
- combination Emax [5]: 0.0755
- combination Emax [6]: 0.148
- combination Emax [7]: 0.125
- combination Emax [8]: 0.241
- combination Emax [9]: 0.121
- combination Emax [10]: 0.69
- combination Emax (GAK (Melanoma)): 0.226
- combination Emax [11]: 0.485
- combination Emax [12]: 0.273
- combination Emax [13]: 0.413
- combination Emax [14]: 0.0949
- combination Emax [15]: 0.21
